In patent US5138101A, “Recovery of high-boiling aldehydes from rhodium-catalyzed hydroformylation processes” (Eastman Kodak Company, priority 1991, dated 1992):
Read-outs that look alike come from different tables or passages of the source.

Columns and labels:
[1] = cited from earlier work
[2] = Partitioning (partition coefficient, Kp) of hydroformylation products and hydroformylation solvent between hydroformylation solvent phase and alkanol/water extraction solution phase; type: physicochemical
From the text: The extraction process described herein is the equilibration of a particular compound dissolving into two separate liquid phases. The effectiveness of the present extraction process may be measured in terms of the partition coefficient (Kp) for a compound "X" which is defined as: [formula] […] High Kp values give high extraction efficiencies requiring lower amounts of extraction solution. Similarly, it is desirable that the Kp of the hydroformylation solvent be a low value. This simplifies purification of the aldehyde products down-stream. In the hydroformylation of diolefins to dialdehydes, it also is desirable to have Kp values for the dialdehyde products larger than the Kp values of the intermediate mono-aldehyde mono-olefin (formyl-olefin) intermediate formed in the hydroformylation reaction. This permits recycling of the formyl-olefin to the hydroformylation reactor in the hydroformylation solvent for further reaction to the desired dialdehyde product, while selectively extracting the desired di-aldehyde product. Likewise, for the same reason, it is desirable to have low Kp values for the olefin or polyolefin feedstocks used in the process.
The extraction examples were carried out in a 300 mL, 3-neck, glass flask equipped with a Teflon magnetic stir bar, a thermometer to measure the temperature of the liquid, a septum for the use of a syringe, a heating mantle and a nitrogen bubbler blanket for the system. […] […] The mixture was stirred at 25° C. for 30 minutes to reach equilibrium, stirring was stopped, and the mixture was allowed to separate into 2 layers (phases) over a 30 minute period of time. […] Samples of each phase were taken with a syringe and chromatographed on a Hewlett Packard Model 5730 capillary FID gas chromatograph. The instrument used a 30 meter DB-1 column (Supelco.) with a programming rate of a 4 minute hold at 70° C. with a programming rate of 8° C./minute to 250° C. The calculations for the weights of hydroformylation products in each phase were carried out using standard procedures using the dodecane as an internal standard for the catalyst layer and methanol as the internal standard for the aqueous layer. The initial volumes of the two phases were used for estimation of the volumes of the two phases at equilibrium to obtain the concentrations of the products in each phase.
The partition coefficients (Kp) were calculated for the C9-enal and C10-dial products for equilibrium between the dodecane hydroformylation solvent and the extraction solution phases at 25° C.
The two phases in the flask were heated to and maintained at 53° C. with stirring for 30 minutes to reach equilibrium. The mixture was allowed to separate into 2 layers at 53° C. and each layer was sampled and analyzed as described above. […] The partitioning procedure was repeated at 70° C.

In the case of `[Rh]` [Rh, rhodium], the “Rhodium extracted into the aqueous phase” value ([1]; 4-hydroxybutyraldehyde 38 percent by weight, U.S. Pat. No. 4,678,857) is given as 5 mg of rhodium per liter and the “Rhodium extracted into the aqueous phase” value ([1]; aqueous 2-N,N-dimethylaminoethanol, U.S. Pat. No. 4,292,196) is given as 70%.
In the case of `CC(C)c1ccc(C(C)C)cc1` [p-diisopropylbenzene], the “Partition Coefficient” value ([2]; Example 3, Ref. Ex. 19, MeOH:water 3:1, 29° C.) is reported as 0.075, the “Partition Coefficient” value ([2]; Example 4, Ref. Ex. 19, MeOH:water 3:1, 58° C.) is reported as 0.118 and the “Partition Coefficient” value ([2]; Example 5, Ref. Ex. 19, MeOH:water 1.5:1, 58° C.) is reported as 0.050. The “Partition Coefficient” value ([2]; Example 6, Ref. Ex. 19, MeOH:water 1.5:1, 31° C.) was 0.018, the “Partition Coefficient” value ([2]; Example 18, Ref. Ex. 24, EtOH:water 7:4, 52° C.) was 0.033 and the “Partition Coefficient” value ([2]; Example 19, Ref. Ex. 24, EtOH:water 7:4, 32° C.) was 0.009. The “Partition Coefficient” value ([2]; Example 24, Ref. Ex. 19, MeOH:water 3:1, 29° C.) was 0.075, the “Partition Coefficient” value ([2]; Example 25, Ref. Ex. 19, MeOH:water 3:1, 58° C.) was 0.118 and the “Partition Coefficient” value ([2]; Example 26, Ref. Ex. 19, MeOH:water 1.5:1, 58° C.) was 0.050. The “Partition Coefficient” value ([2]; Example 27, Ref. Ex. 19, MeOH:water 1.5:1, 31° C.) was 0.018, the “Partition Coefficient” value ([2]; Example 28, Ref. Ex. 24, EtOH:water 3:1, 48° C.) was 0.298 and the “Partition Coefficient” value ([2]; Example 29, Ref. Ex. 24, EtOH:water 3:1, 33° C.) was 0.229. For the same compound, the “Partition Coefficient” value ([2]; Example 30, Ref. Ex. 24, EtOH:water 7:4, 52° C.) was 0.033, the “Partition Coefficient” value ([2]; Example 31, methanol/water 37/12 mL, 50° C., Na 0) was 0.096 and the “Partition Coefficient” value ([2]; Example 32, 50° C., Na 82 mg/L as 2-ethylhexanoate) was 0.125. For the same compound, the “Partition Coefficient” value ([2]; Example 33, 50° C., Na 164 mg/L as 2-ethylhexanoate) was 0.115, the “Partition Coefficient” value ([2]; Example 34, 50° C., Na 327 mg/L as 2-ethylhexanoate) was 0.131 and the “Partition Coefficient” value ([2]; Example 35, 50° C., Na 653 mg/L as 2-ethylhexanoate) was 0.137. The “Partition Coefficient” value ([2]; Example 36, 50° C., Na 1307 mg/L as 2-ethylhexanoate) was 0.063, the “Partition Coefficient” value ([2]; Example 37, methanol/water 37/12 mL, 50° C., Na 0) was 0.064 and the “Partition Coefficient” value ([2]; Example 38, 50° C., Na 82 mg/L as oleate) was 0.083. For the same compound, the “Partition Coefficient” value ([2]; Example 39, 50° C., Na 164 mg/L as oleate) was 0.062, the “Partition Coefficient” value ([2]; Example 40, 50° C., Na 327 mg/L as oleate) was 0.083 and the “Partition Coefficient” value ([2]; Example 41, 50° C., Na 653 mg/L as oleate) was 0.052. For the same compound, the “Partition Coefficient” value ([2]; Example 42, 50° C., Na 1307 mg/L as oleate) was 0.063, the “Partition Coefficient” value ([2]; Example 43, methanol/water 37/12 mL, 50° C., Na 0) was 0.074 and the “Partition Coefficient” value ([2]; Example 44, 50° C., Na 82 mg/L as n butyrate) was 0.063. The “Partition Coefficient” value ([2]; Example 45, 50° C., Na 164 mg/L as n butyrate) was 0.073, the “Partition Coefficient” value ([2]; Example 46, 50° C., Na 327 mg/L as n butyrate) was 0.053 and the “Partition Coefficient” value ([2]; Example 47, 50° C., Na 653 mg/L as n butyrate) was 0.051. For the same compound, the “Partition Coefficient” value ([2]; Example 48, 50° C., Na 1307 mg/L as n butyrate) was 0.038, the “Partition Coefficient” value ([2]; Example 49, methanol/water 37/27 mL, Na 0) was 0.0164 and the “Partition Coefficient” value ([2]; Example 50, methanol/water 37/27 mL, Na 100 as oleate) was 0.0210. For the same compound, the “Partition Coefficient” value ([2]; Example 51, methanol/water 37/27 mL, Na 200 as oleate) was 0.0210, the “Partition Coefficients” value ([2]; Example 52, Ref. Ex. 1, MeOH:water 3:1, 50° C., Na 0) was 0.115 and the “Partition Coefficients” value ([2]; Example 54, Ref. Ex. 1, Na 164 mg/L) was 0.073. For the same compound, the “Partition Coefficients” value ([2]; Example 56, Ref. Ex. 11, Na 0) was 0.081, the “Partition Coefficients” value ([2]; Example 58, Ref. Ex. 11, Na 164 mg/L) was 0.073 and the “Partition Coefficients” value ([2]; Example 60, Ref. Ex. 12, Na 0) was 0.071. For the same compound, the “Partition Coefficients” value ([2]; Example 62, Ref. Ex. 12, Na 164 mg/L) was 0.067, the “Partition Coefficients” value ([2]; Example 64, Ref. Ex. 7, Na 0) was 0.056 and the “Partition Coefficients” value ([2]; Example 66, Ref. Ex. 7, Na 164 mg/L) was 0.072. The “Partition Coefficients” value ([2]; Example 68, Ref. Ex. 13, Na 0) was 0.076, the “Partition Coefficients” value ([2]; Example 70, Ref. Ex. 13, Na 164 mg/L) was 0.060 and the “Partition Coefficient” value ([2]; Example 79, VCH product, Ref. Ex. 3, 40 mL methanol, 10 mL water, 50° C.) was 0.0859. For the same compound, the “Partition Coefficient” value ([2]; Example 80, as Example 79 plus 10 mL water) was 0.0233, the “Partition Coefficient” value ([2]; Example 81, as Example 80 plus 10 mL water) was 0.0050 and the “Partition Coefficient” value ([2]; Example 82, as Example 81 plus 10 mL water) was 0.0017. For the same compound, the “Partition Coefficient” value ([2]; Example 83, DCPD product, Ref. Ex. 4, procedure of Examples 79-82) was 0.0724, the “Partition Coefficient” value ([2]; Example 84, DCPD product, Ref. Ex. 4, procedure of Examples 79-82) was 0.0469 and the “Partition Coefficient” value ([2]; Example 85, DCPD product, Ref. Ex. 4, procedure of Examples 79-82) was 0.0269. The “Partition Coefficient” value ([2]; Example 86, CDDT product, Ref. Ex. 2, 37 mL methanol, 12 mL water, 25° C.) was 0.0297, the “Partition Coefficient” value ([2]; Example 87, as Example 86 plus 10 mL methanol) was 0.077 and the “Partition Coefficient” value ([2]; Example C-7, Ref. Ex. 19, DEG:water 3:1, 30° C.) was 0.128. The “Partition Coefficient” value ([2]; Example C-8, Ref. Ex. 19, DEG:water 1.5:1, 25° C.) was 0.030, the “Partition Coefficient” value ([2]; Example C-9, Ref. Ex. 10, PrOH:water 3:1, 50° C.) was 0.055 and the “Partition Coefficient” value ([2]; Example C-10, Ref. Ex. 10, PrOH:water 1.5:1, 50° C.) was 0.018. The “Partition Coefficient” value ([2]; Example C-11, Ref. Ex. 10, PrOH:water 1:1, 50° C.) was 0.013, the “Partition Coefficient” value ([2]; Example C-16, Ref. Ex. 19, DEG, no water, 58° C.) was 0.128 and the “Partition Coefficient” value ([2]; Example C-17, Ref. Ex. 19, DEG, no water, 33° C.) was 0.128. The “Partition Coefficient” value ([2]; Example C-18, Ref. Ex. 19, DEG:water 3:1, 30° C.) was 0.030, the “Partition Coefficient” value ([2]; Example C-19, Ref. Ex. 19, DEG:water 3:1, 60° C.) was 0.014 and the “Partition Coefficient” value ([2]; Example C-20, Ref. Ex. 19, DEG:water 1.5:1, 60° C.) was 0.0061. For the same compound, the “Partition Coefficient” value ([2]; Example C-21, Ref. Ex. 19, DEG:water 1.5:1, 25° C.) was 0.0030, the “Partition Coefficient” value ([2]; Example C-22, Ref. Ex. 10, PrOH:water 3:1, 50° C.) was 0.055 and the “Partition Coefficient” value ([2]; Example C-23, Ref. Ex. 10, PrOH:water 1.5:1, 50° C.) was 0.0182. For the same compound, the “Partition Coefficient” value ([2]; Example C-24, Ref. Ex. 10, PrOH:water 1:1, 50° C.) was 0.0132.
